The target of assay [1] is T1, Serine/threonine-protein kinase pim-1 (Homo sapiens, UniProt P11309). The assay is described as follows: Inhibition of His tagged human recombinant PIM1 using PIM tide (ARKRRRHPSGPPTA) as substrate incubated for 1 hr by fluorescence based assay.
Assay [2] deals with T1, Serine/threonine-protein kinase pim-1. The assay is described as follows: Inhibition of PIM1 in human NCI-H1299 cells assessed as reduction in BAD phosphorylation at Ser-112 residue incubated for 4 hrs by ELISA. In kind it is cell-based. (In general: An ELISA detects its analyte on a solid surface through an enzyme-linked reagent.)
In assay [3] the target is Serine/threonine-protein kinase pim-3 (Homo sapiens, UniProt Q86V86). As to the kind of experiment: Inhibition of N-terminal 6-His tagged human recombinant PIM3 using PIM tide (ARKRRRHPSGPPTA) as substrate incubated for 1 hr by fluorescence based assay.
For assay [4], the target named is Serine/threonine-protein kinase pim-2 (Homo sapiens, UniProt Q9P1W9). As to the kind of experiment: Inhibition of His tagged human recombinant PIM2 using PIM tide (ARKRRRHPSGPPTA) as substrate incubated for 1 hr by fluorescence based assay.
Assay [5] deals with T2, Receptor-type tyrosine-protein kinase FLT3 (Homo sapiens, UniProt P36888).
T2 sequence (P36888 whole entry): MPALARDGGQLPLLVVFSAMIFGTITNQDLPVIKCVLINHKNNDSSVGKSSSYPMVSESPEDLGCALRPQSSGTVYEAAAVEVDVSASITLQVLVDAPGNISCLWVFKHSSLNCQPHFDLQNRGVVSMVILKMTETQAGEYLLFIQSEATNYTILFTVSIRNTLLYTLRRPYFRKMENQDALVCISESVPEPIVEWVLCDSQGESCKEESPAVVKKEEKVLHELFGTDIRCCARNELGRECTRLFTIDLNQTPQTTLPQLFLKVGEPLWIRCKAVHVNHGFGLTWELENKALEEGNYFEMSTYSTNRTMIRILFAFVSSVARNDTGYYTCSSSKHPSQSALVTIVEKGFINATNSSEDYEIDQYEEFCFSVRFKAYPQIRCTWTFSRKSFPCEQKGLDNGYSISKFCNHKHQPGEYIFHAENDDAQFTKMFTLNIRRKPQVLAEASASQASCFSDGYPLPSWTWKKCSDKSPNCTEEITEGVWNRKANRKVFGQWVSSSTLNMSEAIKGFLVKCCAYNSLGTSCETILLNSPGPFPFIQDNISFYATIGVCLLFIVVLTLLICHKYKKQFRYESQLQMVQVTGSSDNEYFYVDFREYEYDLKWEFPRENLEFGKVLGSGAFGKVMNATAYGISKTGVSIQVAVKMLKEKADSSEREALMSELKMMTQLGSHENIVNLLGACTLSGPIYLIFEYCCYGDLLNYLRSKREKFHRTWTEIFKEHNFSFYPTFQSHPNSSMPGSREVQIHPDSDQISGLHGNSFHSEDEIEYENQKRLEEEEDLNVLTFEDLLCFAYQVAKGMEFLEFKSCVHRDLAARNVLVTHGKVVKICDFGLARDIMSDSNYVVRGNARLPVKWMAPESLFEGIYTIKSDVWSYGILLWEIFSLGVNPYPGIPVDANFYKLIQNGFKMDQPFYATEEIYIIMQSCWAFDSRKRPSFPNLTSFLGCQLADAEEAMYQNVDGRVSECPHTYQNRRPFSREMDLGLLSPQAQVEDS
The assay is described as follows: Inhibition of human FLT3 using EAIYAAPFAKKK as substrate incubated for 60 mins by fluorescence based assay.

The target of assay [6] is Voltage-gated inwardly rectifying potassium channel KCNH2 (Homo sapiens, UniProt Q12809).
The next assay deals with MDA-MB-231. As to the kind of experiment: Antiproliferative activity against human MDA-MB-231 cells incubated for 72 hrs by CellTiter-Glo luminescence assay. The class given is functional. The conditions noted are these: MDA-MB-231, 72 h. For orientation: Cellular ATP, detected with luciferase, serves as a proxy for viable cell number.

A value given as a limit tells only on which side of the number the result lay.

This passage reports IC50, EC50 and GI50 results from ChEMBL document CHEMBL4340512, “Discovery of novel triazolo[4,3-b]pyridazin-3-yl-quinoline derivatives as PIM inhibitors” (Eur J Med Chem, 2019).

As usually defined, the IC50 is the midpoint of a concentration-inhibition curve. One may read the EC50 as the concentration that produces a half-maximal response. What is called GI50 is the concentration at which growth is held to half of that of the control. A high value points to lower sensitivity of the cells.

For the compound `CN1CCOc2c1cnn1c(-c3cccc(C(=O)NCC4CCNCC4)c3)nnc21`, the IC50 in assay [1] was 870 nM.

`CN1CCOc2c1cnn1c(-c3ccc4cccc(NC5CCC(C)(C)CC5)c4n3)nnc21`: the EC50 entry in assay [2] (nci-h1299) is recorded as “Not Active”. The IC50 is 92 nM in assay [1], 4080 nM in assay [3] and over 10000 nM in assay [4].

On to `CN1CCOc2c1cnn1c(-c3ccc4cc(Cl)cc(NCC5(F)CCNCC5)c4n3)nnc21`, for which the EC50 result in assay [2] (nci-h1299) is reported as “Not Active”. For the same compound, the IC50 in assay [1] was 30 nM; in assay [3], 1 nM; in assay [4] it was 1270 nM.

Take `CC(C)N1CCOc2c1cnn1c(-c3ccc4cccc(NCC5CCNCC5)c4n3)nnc21`: the EC50 in assay [2] (read-out: EC50) amounted to 915 nM. Also, the values for the IC50 in assay [1], in assay [3] and in assay [4] were 16 nM, 76 nM and 1650 nM, respectively.

On to `CN1CCOc2c1cnn1c(-c3cccc(C(=O)NCC4CCNCC4)n3)nnc21`, for which, in assay [1], the IC50 stood at 7100 nM.

In the case of `CN1CCOc2c1cnn1c(-c3ccc4cccc(NCC5CCOCC5)c4n3)nnc21`, the EC50 in assay [2] (read-out: EC50) is 325 nM. The IC50 in assay [1] was 30 nM; in assay [3], 402 nM; in assay [4], 6210 nM.

For the compound `CN1CCOc2c1cnn1c(-c3cccc(NCC4CCNCC4)c3)nnc21`, the IC50 in assay [1] was over 10000 nM.

Take `CN1CCOc2c1cnn1c(-c3ccc4ccc(Cl)c(NCC5(F)CCNCC5)c4n3)nnc21`: the EC50 in assay [2] (read-out: EC50) is 71 nM. The IC50 in assay [1] is 12 nM; in assay [3], 6 nM; in assay [4], 696 nM; in assay [5], over 10000 nM; in assay [6], 2100 nM.

For `CN1CCOc2c1cnn1c(-c3ccc4cccc(N5CCC(N)CC5)c4n3)nnc21`, the EC50 in assay [2] (read-out: EC50) worked out at 5310 nM. Also, the IC50 turned out to be 38 nM in assay [1], 80 nM in assay [3] and 2140 nM in assay [4].

Regarding `CN1CCOc2c1cnn1c(-c3ccc4cccc(NC(=O)C5CCNCC5)c4n3)nnc21`, in assay [2] (read-out: EC50), the EC50 was determined as 330 nM. In addition, the IC50 came to 36 nM in assay [1], 131 nM in assay [3] and 3740 nM in assay [4].

On to `CN1CCOc2c1cnn1c(-c3cccc(-c4cccc(NC5CCNCC5)c4)n3)nnc21`, for which the IC50 in assay [1] is 425 nM.

Consider `CN1CCOc2c1cnn1c(-c3ccc4cccc(NCC5CCCCC5)c4n3)nnc21`, for which the results for the IC50 in assay [1], in assay [3] and in assay [4] were 420 nM, over 10000 nM and over 1000 nM, respectively.

Regarding `CN1CCOc2c1cnn1c(-c3cccc(-c4cccc(NCC5CCNCC5)c4)n3)nnc21`, in assay [1], the half-inhibitory concentration (IC50) came out at 785 nM.

With `CN1CCOc2c1cnn1c(-c3ccc4cccc(NCC5CCNCC5)c4c3)nnc21`, the EC50 in assay [2] (read-out: EC50) came to 865 nM. Moreover, the IC50 in assay [1] was determined as 6 nM; in assay [3], 58 nM; in assay [4], 4870 nM.

`CN1CCOc2c1cnn1c(-c3ccc4cccc(NCC5(F)CCNCC5)c4n3)nnc21`: the EC50 in assay [2] (read-out: EC50) turned out to be 215 nM. The IC50 is 21 nM in assay [1], 55 nM in assay [3], 5530 nM in assay [4] and over 10000 nM in assay [5].

As for `c1ccc(OCCN2CCOc3c2cnn2c(-c4ccc5cccc(NCC6CCNCC6)c5n4)nnc32)cc1`, the EC50 in assay [2] (read-out: EC50) was 2020 nM. Further, the results for the IC50 in assay [1], in assay [3] and in assay [4] were 17 nM, 140 nM and 4690 nM, respectively.

With `CN1CCOc2c1cnn1c(C(=O)Nc3ccccc3NCC3CCNCC3)nnc21`, the IC50 in assay [1] is over 10000 nM.

As for `CN1CCOc2c1cnn1c(-c3ccc4cccc(NC5CCOCC5)c4n3)nnc21`, the EC50 in assay [2] (read-out: EC50) was determined as 322 nM. The values for the IC50 in assay [1], in assay [3] and in assay [4] were 25 nM, 358 nM and 2470 nM, respectively.

Consider `CN1CCOc2c1cnn1c(-c3ccc4cccc(N5CCNCC5)c4n3)nnc21`, for which the EC50 in assay [2] (read-out: EC50) was found to be 5360 nM. The IC50 is 200 nM in assay [1], 257 nM in assay [3] and over 10000 nM in assay [4].

As to `O=C(NOC[C@H](O)CO)c1ccc(F)c(F)c1Nc1ccc(I)cc1F` [MIRDAMETINIB], in the assay with MDA-MB-231, the GI50 is 1000 nM.

For the compound `CN1CCOc2c1cnn1c(-c3ccc4cc(F)cc(NCC5(F)CCNCC5)c4n3)nnc21`, the EC50 in assay [2] (read-out: EC50) came to 465 nM. In addition, the IC50 was 10 nM in assay [1], 7 nM in assay [3] and 858 nM in assay [4].

With `CN1CCOc2c1cnn1c(-c3ccc4ccnc(NCC5CCNCC5)c4c3)nnc21`, the EC50 in assay [2] (read-out: EC50) turned out to be 2510 nM. The results for the IC50 in assay [1], in assay [3] and in assay [4] were 4 nM, 6 nM and 27 nM, respectively.

With `CN1CCOc2c1cnn1c(-c3ccc4cccc(NCC5CCOCC5)c4c3)nnc21`, the IC50 in assay [1] was found to be 20 nM; in assay [3] it was 281 nM; in assay [4], 9940 nM.

For the compound `CN1CCC(Nc2cccc3ccc(-c4nnc5c6c(cnn45)N(C)CCO6)nc23)CC1`, the EC50 in assay [2] (read-out: EC50) was 212 nM. The IC50 in assay [1] is 7 nM; in assay [3], 40 nM; in assay [4], 2870 nM; in assay [5], over 10000 nM; in assay [6], over 20000 nM.

With `CN1CCOc2c1cnn1c(-c3ccnc(NC4CCNCC4)c3)nnc21`, the IC50 in assay [1] was over 10000 nM.

In the case of `Cc1cc(NCC2(F)CCNCC2)c2nc(-c3nnc4c5c(cnn34)N(C)CCO5)ccc2c1`, the EC50 in assay [2] (read-out: EC50) was 5960 nM. In addition, the figures for the IC50 in assay [1] and in assay [4] were 236 nM and over 10000 nM, respectively.

Consider `CN1CCOc2c1cnn1c(C(=O)Nc3ccccc3OCC3CCNCC3)nnc21`, for which the IC50 in assay [1] is 1100 nM.

`CN1CCOc2c1cnn1c(-c3ccc4cccc(NCC5CCNCC5)c4n3)nnc21`: in assay [2] (read-out: EC50), the EC50 amounted to 700 nM. Moreover, the IC50 in assay [1] was determined as 14 nM; in assay [3], 17 nM; in assay [4], 4260 nM.

Take `CN1CCOc2c1cnn1c(C(=O)Nc3ccccc3NC3CCNCC3)nnc21`: the IC50 in assay [1] was over 10000 nM.

As to `CN1CCOc2c1cnn1c(-c3ccc4ccnc(NC5CCCCC5)c4c3)nnc21`, the EC50 in assay [2] (read-out: EC50) came out at 110 nM. Also, the IC50 in assay [1] was 26 nM; in assay [3], 238 nM; in assay [4], 1100 nM; in assay [5], over 10000 nM.

As for `CN1CCOc2c1cnn1c(-c3ccc4cccc(NC5CCCCC5)c4c3)nnc21`, the EC50 in assay [2] (read-out: EC50) came to 265 nM. In addition, the IC50 in assay [1] is 46 nM; in assay [3] it was 1550 nM; in assay [4] it was 8040 nM; in assay [5] it was over 10000 nM; in assay [6], 6060 nM.

As to `CN1CCC(CNc2cccc3ccc(-c4nnc5c6c(cnn45)N(C)CCO6)nc23)CC1`, the EC50 in assay [2] (read-out: EC50) stood at 179 nM. The IC50 in assay [1] was 14 nM; in assay [3] it was 82 nM; in assay [4] it was 4250 nM; in assay [5], over 10000 nM; in assay [6], over 20000 nM.

With `CCN1CCOc2c1cnn1c(-c3ccc4cccc(NCC5CCNCC5)c4n3)nnc21`, the EC50 in assay [2] (read-out: EC50) is 780 nM. Besides, the IC50 is 13 nM in assay [1], 58 nM in assay [3] and 1930 nM in assay [4].

As for `CN1CCOc2c1cnn1c(-c3ccc4cccc(NC5CCNCC5)c4n3)nnc21`, in assay [2] (read-out: EC50), the EC50 is 1380 nM. Moreover, the 50% inhibitory concentration (IC50) was determined as 12 nM in assay [1], 95 nM in assay [3] and 690 nM in assay [4].

Regarding `CCCN1CCOc2c1cnn1c(-c3ccc4cccc(NCC5CCNCC5)c4n3)nnc21`, the EC50 in assay [2] (read-out: EC50) worked out at 800 nM. For the same compound, the IC50 in assay [1] is 12 nM; in assay [3], 60 nM; in assay [4], 4010 nM.
